Test results reported in paper PMC8533949, “Biocatalytic Production of Aldehydes: Exploring the Potential of Lathyrus cicera Amine Oxidase” (Biomolecules, 2021).

System: T1, Lathyrus cicera amine oxidase (LCAO)
T1 construct: copper/TPQ enzyme
Assay: coupled peroxidase assay (AAP/DCHBS, […] nm), initial rates
Assay type: biochemical
Settings: pH 7, 20 mM phosphate, 25 °C, air O2

Compound | Km [µM]
NCCc1ccc(O)cc1 [1a] | 600
NCCc1ccccc1 [2a] | 1200
COc1ccc(CCN)cc1O [3a] | 1580
COc1cc(CCN)ccc1O [4a] | 1310
COc1ccc(CCN)cc1OC [5a] | 1000
COc1ccc(CCN)cc1 [6a] | 5370
COc1cccc(CCN)c1 [7a] | 470
NCCc1ccc2c(c1)OCO2 [8a] | 3830
NCCc1ccc(Cl)cc1 [10a] | 3380
NCCN1CCCCC1 [11a] | 420
NCCN1CCOCC1 [12a] | 6460
NCCC1CCCCC1 [13a] | 1440
NCCC1=CCCCC1 [14a] | 1900
NCCCN1CCOCC1 [15a] | 17000
NCCCn1ccnc1 [16a] | 610
NCCCN1CCCC1 [17a] | 2300
CN(C)CCN [18a] | 230
CN(C)CCCN [19a] | 8800
